Data taken from patent US11998591B2, “Method of treating diabetes type 2 by administering ultrarapid acting insulin” (MannKind Corporation, priority 2008, dated 2024).
Read-outs that look alike come from different tables or passages of the source.

Legend:
[1] = tested on: patients; settings: gastrointestinal side-effects being a primary issue; cited from earlier work
[2] = cited from earlier work
[3] = tested on: subjects with type 1 diabetes; experiment: 52-week clinical trial: basal insulin + prandial TI Inhalation Powder vs basal insulin + SC insulin aspart; type: in vivo, human
Description: A Prospective, Multi-Center, Open-Label, Randomized, Controlled Clinical Trial Comparing the Efficacy and Safety in Subjects with Type 1 Diabetes Receiving SC Basal Insulin and Prandial Inhalation of Insulin-FDKP Versus SC Basal and Prandial Insulin Over a 52-Week Treatment Period and a 4-Week Follow-Up
This was a prospective, multi-country, multicenter, open label, randomized, controlled clinical trial comparing glycemic control in subjects with type 1 diabetes receiving basal insulin and prandial insulin-FDKP (TI) Inhalation Powder (TI Inhalation Powder group) with subjects receiving basal insulin and SC rapid-acting insulin aspart (comparator group). This study included a 52-week treatment phase and a 4-week follow-up phase. During the 4-week follow-up phase, pulmonary function and select clinical laboratory assessments were scheduled.
The study began with enrollment at Week −3. Subjects received a complete battery of safety and eligibility assessments, including HbA1c and fasting plasma glucose (FPG).
At Week −1, subjects were randomized to one of the following 2 treatments: • Basal insulin+prandial TI Inhalation Powder • Basal insulin+prandial SC rapid-acting insulin
At Week −1, subjects again completed the first three components of the Insulin Treatment Questionnaire (ITQ) for the purpose of assessing test-retest reliability only). After completing the questionnaire, subjects randomized to the TI Inhalation Powder group were trained on the MEDTONE® Inhaler using TECHNOSPHERE®/insulin (insulin-FDKP) inhalation powder; subjects in the comparator group were trained in the use of the NOVOLOG® pens; all subjects were trained in administration of LANTUS®. Additionally, all subjects were trained on a blood glucose monitoring (HBGM) meter provided at the beginning of the trial and diary and received diabetes education. Any training was repeated at Week 0, if needed.
At the beginning of the treatment phase, subjects had several titration/dose evaluation visits to adjust insulin therapy. Titration visits occurred once a week for the first 4 weeks. During Weeks 4 through 10, there were three telephone “visits” (at Week 6, Week 8, and Week 10) to titrate dose, if necessary. However, dose titration was allowed throughout the trial.
All subjects completed a 7-point blood glucose profile on any 3 days during the week immediately preceding each visit from Week 0 to Week 52. The 7 time points included samples from before breakfast and 2 hours after breakfast, before the mid-day meal and 2 hours after the mid-day meal, before the evening meal and 2 hours after the evening meal and at bedtime (7 time points a day, over 3 days). These blood glucose (BG) values were recorded in the HBGM diary that was collected at clinic visits. The diaries for Weeks 4 through 10 (during dose titration) which were discussed over the telephone were collected at the next office visits.
A meal challenge test was performed at Week 4 (during dose titration), Week 26, and Week 52. Meal challenge venous blood sampling times were: −30, 0, 30, 60, 90, 105, 120, 180, 240, 300, and 360 minutes. Blood glucose (BG) was also measured using HBGM glucose meters to aid the Investigator in treatment decisions and values were obtained at −30, 0, 60, and 120 minutes during the meal challenge.
Treatments for glycemic control used in the trial were the following: prandial insulin-FDKP (TI) inhalation powder, prandial insulin aspart, and basal insulin glargine. Subjects assigned to the TI Inhalation Powder group (TI Inhalation Powder in combination with basal insulin therapy) received sc basal insulin glargine (LANTUS®) once daily (at bedtime) and inhaled TI Inhalation Powder 3 to 4 times a day, immediately before main meals or a snack as based upon clinical need. Adjustment of the TI Inhalation Powder dose and frequency of use to greater than 3 times a day was at the discretion of the Investigator. […]

[4] = tested on: subjects with type 2 diabetes; type: in vivo, human
Protocol: The insulin-FDKP formulation is administered to the subjects by oral inhalation using a MEDTONE® dry powder inhaler (MannKind Corp.). Following the completion of the meal challenge, the data was analyzed as per the statistical analysis plan. […] The study was amended (A1) and included 12 subjects (10 were reenrolled from the first meal challenge), and only two treatments, which were 10 U lispro and 60 and 90 U TI. The doses were selected based on the relative bioavailability observed following the first meal challenge (OP), where under an assumption of linear kinetics, 10 U lispro and 60 U TI would result in similar exposure. The 90 U dose group was included to assess the effect of the highest dose group of TI studied in Phase 3 trials. Six of the 12 subjects received 60 U TI and the other 6 subjects received 90 U TI. All 12 subjects received 10 U lispro in a crossover fashion. Methods and results below are described in terms of the Original Protocol (OP), which includes the meal challenge in 18 subjects with three treatments (EXUBERA®, lispro and TI) and Amendment 1 (A1), which includes 12 subjects treated with only TI and lispro. […] The subjects were screened and evaluated before, during and after the experiments and their data analyzed as described below. Subjects were selected based on several key inclusion criteria, including, male and female, having ≥18 and ≤70 years of age with clinical diagnosis of type 2 diabetes mellitus for ≥12 months. The subjects selected for the study also had stable anti-diabetic regimen with insulin for the previous 3 months; HbA1c ≤8.5%; Body Mass Index (BMI) between ≤34 kg/m^2 and ≥25 kg/m^2; urine cotinine ≤100 ng/mL; […] Criteria for exclusion from the study also included unstable diabetes control and/or evidence of serious complications of diabetes (e.g., autonomic neuropathy); serum creatinine >1.8 mg/dL in female subjects and >2.0 mg/dL in male subjects. Other clinically important pulmonary disease was confirmed by documented history or pulmonary function testing. Under OP, the study was planned to be a randomized, open label, 3-way cross-over study. […] At this analysis all patients at least had completed the meal challenge visits and only those data have been used. The screening visit(s) (V1) occurred 1 to 21 days before the first treatment visit (V2) with 7 to 21 days elapsing between treatment-visits (V2, V3, and V4) for the meal challenge test. A minimum of 8 weeks elapsed between V4 and the next treatment visit, (V6). An additional safety visit (V5) was scheduled 1-3 days prior to the first of 3 glucose clamp procedures (V6). The glucose clamp procedure occurred at 3 visits, Visits V6, V7, and V8, with 7 to 21 days elapsing between the visits. […] Each treatment visit during the meal challenge had the subjects hospitalized in the clinical unit the night before initiation of treatment. […] Each subject followed the same randomization order for the glucose-clamp procedures as for the meal challenge tests. During the study, periodic blood draws for determination of pharmacokinetic and/or pharmacodynamic parameters, and safety were taken beginning at 12 hours prior to onset of the treatment regimens and meal challenge, and thereafter for a period of 8 hours. […] Meal Challenge Test: BOOST PLUS® (12 fl. oz.) consisting of 67.5 g carbohydrate, 21 g protein, 21 g fat, energy content 540 kcal was used for the meal challenge test. The BOOST PLUS® was enriched with U-^13C-glucose to determine the amount of absorbed glucose. Concurrent enriched continuous infusion of 6,6-^2H2 glucose was used to assess endogenous glucose production EGP. […] Under OP, the dose for insulin lispro was selected based on information obtained from the regulatory label. The dose selected for EXUBERA® was obtained by means of back calculation of the most commonly used dose information presented to the FDA Advisory Committee in the EXUBERA® Briefing Document. […]

[5] = tested on: subjects with type 2 diabetes; type: in vivo, human; remark: listed apart in the source
Protocol: Following the completion of the meal challenge, the data was analyzed as per the statistical analysis plan. […] The study was amended (A1) and included 12 subjects (10 were reenrolled from the first meal challenge), and only two treatments, which were 10 U lispro and 60 and 90 U TI. The doses were selected based on the relative bioavailability observed following the first meal challenge (OP), where under an assumption of linear kinetics, 10 U lispro and 60 U TI would result in similar exposure. The 90 U dose group was included to assess the effect of the highest dose group of TI studied in Phase 3 trials. Six of the 12 subjects received 60 U TI and the other 6 subjects received 90 U TI. All 12 subjects received 10 U lispro in a crossover fashion. Methods and results below are described in terms of the Original Protocol (OP), which includes the meal challenge in 18 subjects with three treatments (EXUBERA®, lispro and TI) and Amendment 1 (A1), which includes 12 subjects treated with only TI and lispro. […] The subjects were screened and evaluated before, during and after the experiments and their data analyzed as described below. Subjects were selected based on several key inclusion criteria, including, male and female, having ≥18 and ≤70 years of age with clinical diagnosis of type 2 diabetes mellitus for ≥12 months. The subjects selected for the study also had stable anti-diabetic regimen with insulin for the previous 3 months; HbA1c ≤8.5%; Body Mass Index (BMI) between ≤34 kg/m^2 and ≥25 kg/m^2; urine cotinine ≤100 ng/mL; […] Criteria for exclusion from the study also included unstable diabetes control and/or evidence of serious complications of diabetes (e.g., autonomic neuropathy); serum creatinine >1.8 mg/dL in female subjects and >2.0 mg/dL in male subjects. Other clinically important pulmonary disease was confirmed by documented history or pulmonary function testing. Under A1, the study was planned to be a randomized, open label, 2-way cross-over study. […] Blood glucose concentrations were measured at regular intervals from arterialized venous blood samples. […]

[6] = subjects with type 1 diabetes, prescribing information
[7] = 52 weeks, with basal insulin glargine
[8] = OP: 45 U insulin-FDKP, 12 U SC lispro, 4 mg EXUBERA, FIG. 6

Q: Which “Patients who cannot tolerate the drug, at least at dosages adequate for acceptable glycemic control” value [1] does the source give for `CN(C)C(=N)N=C(N)N` [metformin] here?
A: Approximately 30%

Q: With “Regular human insulin: regular human insulin preparations for subcutaneous injection, considered short acting” as the compound, how does the “Duration of significant elevation or activity (as long as)” value ([2]; subcutaneous injection) read?
A: 10 to 12 h

Q: What about the “Time to reach maximal activity” value ([2]; subcutaneous injection) of the same compound?
A: 2 to 4 h

Q: What about the “Time to reach maximal blood insulin concentration” value ([2]; subcutaneous injection) of the same compound?
A: 1 to 2 h

Q: For “insulin aspart: SC rapid-acting insulin analog (NOVOLOG®), comparator in Example 2”, which “Median Tmax” value [2, 6] is on record?
A: 0.667 to 0.833 h

Q: What about the “Mean decrease in fasting plasma glucose (FPG) from baseline” value ([3]; 52-week treatment period, with basal insulin glargine) of the same compound?
A: 23.4 (SD 103.1) mg/dL

Q: And the “Mean fasting plasma glucose (FPG) at the end of the treatment period” value [3, 7]?
A: 161.3 (SD 68.2) mg/dL

Q: And the “Percentage of subjects whose HbA1c level decreased to ≤6.5%” value [3, 7]?
A: 7.31%

Q: And the “Percentage of subjects whose HbA1c level decreased to ≤7.0%” value [3, 7]?
A: 15.98%

Q: And the “Percentage of subjects whose HbA1c level decreased to ≤8.0%” value [3, 7]?
A: 56.16%

Q: And the HbA1c ([3]; Week 14, with basal insulin glargine)?
A: 8.07 (SD 1.09) %

Q: And the “Average body weight gain” value ([3]; over the 52-week treatment period)?
A: 1.4 kg

Q: With “insulin glulisine: rapid acting insulin analog (APIDRA®)” as the compound, how does the “Range of Tmax” value ([2]; both type 1 and type 2 populations, prescribing information) read?
A: 0.667 to 2 h

Q: And the “Median Tmax” value [2, 6]?
A: 1 h

Q: And the “Median Tmax” value ([2]; subjects with type 2 diabetes, prescribing information)?
A: 1.67 h

Q: For “insulin lispro: rapid acting insulin analog, subcutaneously administered (HUMALOG®, Eli Lilly & Co.)”, which Tmax ([2]; prescribing information) is on record?
A: 0.5 to 1.5 h

Q: And the “Time of peak inhibition of endogenous glucose production after treatment” value ([4]; OP: 45 U insulin-FDKP, 12 U SC lispro, 4 mg EXUBERA, FIG. 5)?
A: about 80 minutes

Q: And the “Time after dosing at which glucose disappearance rate peaked” value [4, 8]?
A: about 120 minutes

Q: What about the “Time post dosing at which glucose disappearance rate was substantial / departed from baseline” value [4, 8] of the same compound?
A: about 30 minutes

Q: And the “Time post-treatment at which (further) glucose infusion was needed to remain above 90 mg/dL” value ([4]; OP: 45 U insulin-FDKP, 12 U SC lispro, 4 mg EXUBERA, after the initial phase)?
A: ~3 h

Q: What about the “Median tmax of insulin concentration” value ([4]; human, in vivo, sc, 4 mg) of the same compound?
A: 1.25 h

Q: What about the “Total insulin exposure, greater than following either 45 U insulin-FDKP (TI) or 4 mg EXUBERA” value ([4]; in vivo) of the same compound?
A: approximately 40%

Q: And the “Time of peak inhibition of endogenous glucose production following dosing” value ([5]; 10 U lispro SC, FIG. 10)?
A: about 100 minutes

Q: What about the “Time after dosing at which glucose disappearance rate peaked” value ([5]; 10 U lispro SC, FIG. 11) of the same compound?
A: about 100 minutes

Q: What about the “Median tmax of insulin concentration” value ([5]; human, in vivo, sc) of the same compound?
A: 1 h
